Results from PubChem BioAssay (NCI).
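Step 1: Grow cells in 96-well plates. Step 2: Expose to compound for 48 hours at 5 concentrations. Step 3: Interpolate endpoints linearly; if unreached, use highest concentration. TGI: concentration producing complete growth inhibition.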

Assays:
Test in all cases: growth of human tumour cells (NCI), 48 h
LOX IMVI melanoma = system: LOX IMVI melanoma
IGROV1 ovarian = system: IGROV1 ovarian
SR leukemia = system: SR leukemia
HCT-15 colon = system: HCT-15 colon
HCT-116 colon = system: HCT-116 colon
SK-MEL-2 melanoma = system: SK-MEL-2 melanoma
786-0 renal = system: 786-0 renal
MCF7 breast = system: MCF7 breast
HS 578T breast = system: HS 578T breast
NCI-H23 lung = system: NCI-H23 lung
CAKI-1 renal = system: CAKI-1 renal
SK-MEL-5 melanoma = system: SK-MEL-5 melanoma
MDA-MB-435 = system: MDA-MB-435
HOP-92 NSCLC = system: HOP-92 NSCLC

SMILES	TGI (LOX IMVI melanoma) [µM]	TGI (IGROV1 ovarian) [µM]	TGI (SR leukemia) [µM]	TGI (HCT-15 colon) [µM]	TGI (HCT-116 colon) [µM]	TGI (SK-MEL-2 melanoma) [µM]	TGI (786-0 renal) [µM]	TGI (MCF7 breast) [µM]	TGI (HS 578T breast) [µM]	TGI (NCI-H23 lung) [µM]	TGI (CAKI-1 renal) [µM]	TGI (SK-MEL-5 melanoma) [µM]	TGI (MDA-MB-435) [µM]	TGI (HOP-92 NSCLC) [µM]
CCC[C@H](O)[C@@H](CNc1cc(NC(C)=O)nc(NC(C)=O)n1)N(Cc1ccccc1)Cc1ccccc1	> 100	50.9	> 100	> 100	54.1	> 100	38.6	25.8	> 100	58.4	38.5	> 100	> 100	> 100
Cc1nc(Cl)c2sc(=S)n(-c3ccc(F)cc3)c2n1	3.61	3.53	2.99	15.1	4.15	25.4	11.9	13.2	6.24	2.52	3.11	10.3	8.68	33.1
CCOc1cc(-c2nc3ccccn3c2/N=C/c2cc([N+](=O)[O-])cc([N+](=O)[O-])c2O)ccc1O	> 100	> 100	> 100	> 100	> 100	> 100	> 100	> 100	> 100	> 100	> 100	> 100	> 100	> 100
Nc1ccc(-c2ncc3cc(-c4cccc(-c5cc6cnc(-c7ccc(N)cc7)nc6c6ccccc56)c4)c4ccccc4c3n2)cc1	> 100	> 100	> 100	> 100	> 100	> 100	> 100	> 100	> 100	> 100	> 100	> 100	> 100	> 100
COC1(C(C)(C)C)C=C(C(C)(C)C)P(=O)(O)O1 (configuration not stated)	> 100	> 100	> 100	> 100	> 100	> 100	> 100	> 100	> 100	> 100	> 100	> 100	> 100	> 100
COc1ccc(C2=C(Cl)c3cc(OC)c(OC)cc3C2=O)cc1OC	24.7	32.1	> 100	20.7	15.2	28	10.7	27.9	87.4	26.7	4.24	31.7	29.4	4
Oc1ccc(Cl)cc1-c1[nH]c(=S)nc(-c2ccccc2)c1Cl	> 100	> 100	> 100	> 100	> 100	> 100	> 100	> 100	> 100	> 100	> 100	> 100	> 100	> 100
COc1cc(O)c2c(=O)c(OC)c(-c3ccc4c(c3)OCO4)oc2c1	> 100	> 100	> 100	> 100	> 100	> 100	> 100	> 100	> 100	> 100	> 100	98.1	> 100	> 57.7
CCCCCCCC(=O)OC[n+]1ccc(-c2c(COC(=O)NC(C)C)c(COC(=O)NC(C)C)c3n2CCC3)cc1	54	> 68.3	> 56	> 100	> 71.4	47.1	> 79.8	> 100	> 100	> 100	62.7	> 100	> 100	83.8
CC(C)(C)OC(=O)NC1CC=CCC1NC(=O)OC(C)(C)C (configuration not stated)	> 100	> 100	> 100	> 100	> 100	> 100	> 100	> 100	> 100	> 100	> 100	> 100	> 100	> 100
OC(CC(CC(O)(C(F)(F)Cl)C(F)(F)Cl)=NNc1ccccc1)(C(F)(F)Cl)C(F)(F)Cl	6.91	> 10	> 10	9.16	3.89	3.56	> 10	9.93	5.93	7.31	6.43	3.45	> 10	5.19
CO[C@H]1O[C@@H]2CO[C@@H](c3ccccc3)O[C@H]2[C@@H]2CC=CCC[C@]12O	> 100	> 100	> 100	> 100	> 100	> 100	> 100	> 100	18.2	> 100	> 100	> 100	> 100	> 100
COc1ccc(OC)c([N+](=O)[O-])c1-c1nc2sccn2c1/C=N/N=C(N)N	> 100	> 100	> 100	> 100	> 100	93.2	> 100	54.2	92.6	> 100	> 100	> 100	> 100	> 100
CC(=O)NC1=C(C)C(=O)c2c(nc3n2CCC3OC(=O)c2ccccc2)C1=N (configuration not stated)	1.33	3.58	7.73	7.47	21.2	4.18	3.65	2.53	5.4	3.83	4	2.83	0.319	5.47
O=C(O)c1nc2cc(C(F)(F)F)ccc2nc1Nc1ccc(Cl)c(Cl)c1	31.2	39.3	96.3	24.8	21.1	8.25	29.3	90.1	37.8	31.7	80.3	52.6	18.6	23.1
Clc1cc(OCc2nn3c(Cc4ccccc4)nnc3s2)ccc1OCc1nn2c(Cc3ccccc3)nnc2s1	> 100	> 100	> 100	> 100	> 100	> 100	56.8	> 100	> 100	> 100	99.6	> 100	> 100	46.5
CCCCC1Cc2ccccc2-c2n1c1ccccc1[n+]2C (configuration not stated)	62.3	> 100	58.5	> 100	> 100	35.7	> 100	> 100	81.5	42.5	> 100	18	> 100	> 100
C[n+]1noc(/N=N\[O-])c1-c1cc(-c2c(/N=N\[O-])on[n+]2C)cc(-c2c(/N=N/[O-])on[n+]2C)c1	> 100	> 100	> 100	> 100	> 100	> 100	> 100	> 100	> 100	> 100	> 100	> 100	> 100	> 100
